Here are results for 1 compound from patent US11707440B2 (priority 2017, dated 2023).

Series [1] deals with patients with treatment-resistant depression (TRD). Nature of the series: GAD-7, Example 7. In kind it is in vivo, human. As for the experimental part: Overall illness severity was assessed on the Clinical Global Impression of Severity (CGI-S) scale (Guy, “ECDEU Assessment Manual for Psychopharmacology-Revised (DHEW Publ No ADM 76-338)”, Rockville, Md.: U.S. Department of Health, Education, and Welfare, Public Health Service, Alcohol, Drug Abuse, and Mental Health Administration, NIMH Psychopharmacology Research Branch, Division of Extramural Research Programs; 1976, pp 218-222). Participants assessed their severity of anxiety on the Generalized Anxiety Disorder 7-item (GADS-7) Scale (See, Tables 157 and 15). See, Spitzer, “A brief measure for assessing generalized anxiety disorder—the GAD-7”, Arch. Intern. Med., 2006, 166(10):1092-1097.

Series [2] relates to elderly subjects with TRD. The note with it: US patients aged ≥65 years.
A short description of series [3]: Pharmacokinetics of intranasal esketamine in healthy subjects (Example 9). The settings on record: healthy subjects; 28, 56 and 84 mg. As for the experimental part:
Pharmacokinetic blood samples for measurement of esketamine and noresketamine concentrations in plasma were collected from predose until up to 24 hours after each intranasal esketamine regimen on Day 1 of each period.
Blood samples (4 mL each) for determination of esketamine and noresketamine plasma concentrations were collected into the appropriate collection tube (e.g., Vacutainer®) at timepoints 0.00, 0.12, 0.20, 0.37, 0.53, 0.67, 0.83, 1.00, 1.25, 1.50, 2.00, 3.00, 4.00, 6.00, 9.00, 12.00, 18.00, and 24.00 h. The total amount of blood to be drawn for clinical laboratory tests and PK evaluations is approximately 327 mL.
Plasma samples were analyzed for esketamine and noresketamine concentrations using the validated, specific and sensitive liquid chromatography coupled to tandem mass spectrometry (LC-MS/MS) achiral method of Example 8.
Serial PK blood samples (4 mL each) were collected for a 24-hour period from each subject (Periods 1, 2, and 3). […] Statistical Methods 1.6.4.1. Sample Size
The following key parameters of esketamine and noresketamine in plasma were calculated using noncompartmental methods and actual sampling times: Cmax, tmax, AUClast, AUC∞, t1/2,λ, and λz.

The test system of series [4] is patients with treatment-resistant depression (TRD). Nature of the series: Blood pressure and heart rate, Example 7. In kind it is in vivo, human. As for the experimental part:
Adverse events were monitored throughout the study. Other safety assessments (i.e., laboratory tests, vital signs, physical examination) were performed at pre-specified time points. Vital signs, the Clinician Administered Dissociative States Scale (CADSS; Bremner, “Measurement of dissociative states with the clinician-administered dissociative states scale (CADSS)”, J. Traumatic Stress, 1998, 11(1):125-136), and the 4-item positive symptom subscale from the Brief Psychiatric Rating Scale (BPRS; Overall, “The Brief Psychiatric Rating Scale. Psychological Reports”, 1962, 10:799-812) were assessed pre-dose, at 40 minutes, and 2 hours post-dose.

[5] abbreviates: in most cases at 10 or 40 minutes post-dose.

In the case of `CN[C@]1(c2ccccc2Cl)CCCCC1=O` [esketamine, (S)-2-(2-chlorophenyl)-2-(methylamino)cyclohexanone], the “GAD-7 LS mean difference from placebo” value in series [1] (28 mg, Period 1) is reported as −0.21; in series [1] (56 mg, Period 1), −1.40; in series [1] (56 mg, Period 2), 0.60. Further, the “GAD-7 change from baseline, LS mean” value in series [1] (28 mg, Period 1, first day to day 8) is recorded as −1.5; in series [1] (28 mg, Period 2, first day to day 8 of period), −1.6; in series [1] (56 mg, Period 1, first day to day 8), −3.1; in series [1] (56 mg, Period 2, first day to day 8 of period), 1.0; in series [1] (84 mg, Period 1, first day to day 8), −5.1; in series [1] (84 mg, Period 2, first day to day 8 of period), −0.9. Further, the “Patients who withdrew the nasal spray” value in series [2] is on record as 2 patients. For the same compound, the “AUC (AUClast and AUC∞) variability, range” value in series [3] is given as 25.0% to 30.4. For the same compound, in series [3], the “Cmax variability (percent coefficient of variation), range across treatment groups” value is listed as 35.7% to 36.7. For the same compound, the “Diastolic blood pressure, maximum mean change” value in series [4] (dosing days) amounted to 10.3 mmHg. The “Heart rate, maximum mean change” value in series [4] (dosing days) was 9.4 bpm. Also, the “Systolic blood pressure, maximum mean change” value in series [4] (dosing days) was found to be 19.0 mmHg. The “Time of return of elevated blood pressure to the normal range” value in series [4] (human, in vivo, other: intranasal) is ≤ 2 hours post-dose. Further, the “Maximum diastolic blood pressure value” in series [4] (setting [5]) is 115 mmHg. Further, the “Maximum systolic blood pressure value” in series [4] (setting [5]) came to 199 mmHg.
